Where two headings read alike, the source gives them in different places.
Key:
[1] = test system: 3-nitrotyrosine formation in the lung parenchyma; details: for 3-nitrotyrosine stained surface area, mean ± SEM: cigarette smoke alone 3.07, room air 0.24
Experimental: C57BL/6J mice (n=25, 5 per group; male/female, 3-6 months, 20-30 g; Charles River GmbH, Sulzfeld, Germany) were anesthetized with a ketamine (100 mg/kg body weight) and xylazine (20 mg/kg body weight) intraperitoneal injection (Ceva Tiergesundheit GmbH, Dusseldorf, Germany) containing heparin (50 I.E. heparin/g body weight; Ratiopharm GmbH, Ulm, Germany). The lungs and the heart were removed from the chest cavity and placed on the ILU system (see FIGS. 1A and 1B). Lungs were ventilated in an isolated chamber using normoxic gas (21% O2, 5% CO2, 74% N2; 150 breaths per minute at the PEEP (positive end-expiratory pressure) of 3 cm H2O) and perfused with a modified Krebs-Henseleit buffer (120.0 mM NaCl, 4.3 mM KCl, 1.1 mM KH2PO4, 2.4 mM CaCl2, 1.3 mM MgCl2, 13.14 mM glucose, 0.25 mM hydroxyethyl starch 200000/0.5, 25.0 mM NaHCO3 adjusted to a constant pH range of […] L-arginine; Serag-Wissner GmbH & Co. KG, Naila, Germany) at a temperature of 37° C. Lung weight, right and left ventricle pressure, as well as ventilatory pressure were monitored and recorded during the whole experimental procedure. After 5-10 minutes, when the lung was properly flushed and all the parameters were stable, 5-amino-2,3-dihydro-1,4-phthalazinedione sodium salt was applied by adding 150 μl of a stock solution to 15 ml of the circulating perfusion buffer. The substance was applied 10 minutes prior to the first cigarette smoke application. Cigarette smoke was applied via trachea while lung is perfused with the buffer containing 5-amino-2,3-dihydro-1,4-phthalazinedione sodium salt. Cigarette smoke was prepared freshly before each application, by burning one cigarette (research cigarettes 3R4F, University of Kentucky, USA) in one minute using normoxic gas at the flow of 1 l/min and collected in a 1 l glass bottle containing 5 g silica gel for removing the moist from the cigarette smoke. 50 ml of the cigarette smoke were taken via a syringe and applied to the lung via trachea (FIG. 4A) in deep breaths (periodic inflation for 3-4 s) over a period of 5 min. The application was done manually while carefully monitoring the inspiratory pressure to avoid damage of the lung. The cigarette smoke application was repeated three times with a 1 hour break in-between.
5-amino-2,3-dihydro-1,4-phthalazinedione sodium salt Form I was dissolved in water for injection (vehicle) at the required concentrations described above. Stock solutions were prepared in water for injection. Further 1:100 dilutions were made with modified Krebs-Henseleit buffer (see above). Stock solutions were stored at −70° C. in appropriate aliquots. The required amount of stock solution was thawed, and the corresponding working solution was prepared for immediate use.
One hour after the third cigarette smoke application lungs were removed from the system and fixed by inflating with formalin solution (via trachea) at the pressure of 12-15 cm H2O for two hours at room temperature. Afterwards the fixed lungs were kept in PBS (phosphate buffer saline, see below) at +4° C. until further dehydration and paraffin embedding. Paraffin blocks were cut 3 μm thick, dried overnight at 37° C. and stained for 3-nitrotyrosine (3-NT).
The immunohistochemical staining of 3-nitrotyrosine was carried out according to the following protocol:
Stained histological samples were blindly analysed by light microscope. 3-nitrotyrosine levels in the lung parenchyma were quantified as a percentage of stained surface area. Quantification was performed under 200× magnification in 5-10 randomly selected fields with exclusion of large bronchi and vessels. One-Way ANOVA statistical test with Bonferroni correction was performed for comparison between groups. Differences with p<0.05 were considered statistically significant.

PCI model of sepsis = details: for survival rate after 10 days: therapeutic mode, n=6
Experimental: In the PCI (peritoneal contamination and infection) model of sepsis a human fecal suspension was injected intraperitoneally to mice (3 μl/g body weight). To all groups the antibiotic meropenem (25 mg/kg body weight) was administered 6 hours after PCI induction. At this time point all mice received also a volume loading with a 5% glucose solution. This treatment is repeated on the two consecutive days after PCI induction, at intervals of 24 hours. • Group I: control (not infected) • Group II: PCI (infected, without treatment) • Group III: PCI+2 mg/kg body weight 5-amino-2,3-dihydro-1,4-phthalazinedione sodium salt Form I • Group IV: PCI+5 mg/kg body weight 5-amino-2,3-dihydro-1,4-phthalazinedione sodium salt Form I
Starting at 8 hours after PCI induction the mice of the treatment groups were treated for two consecutive days every 8 hours with an intraperitoneal injection of 2 mg/kg body weight, respectively 5 mg/kg body weight 5-amino-2,3-dihydro-1,4-phthalazinedione sodium salt Form I. Thereupon the mice were treated for further eight days with an intraperitoneal injection of 2 mg/kg body weight, respectively 5 mg/kg body weight 5-amino-2,3-dihydro-1,4-phthalazinedione sodium salt Form I once daily. (n=6)
Herein the mice were treated with 5 mg/kg body weight 5-amino-2,3-dihydro-1,4-phthalazinedione sodium salt Form I only, but only twice, 3 hours before PCI induction and 6 hours after (n=8).
The Clinical Severity Score (CSS) was assessed daily for the mice of the prophylactic treatment group. The CSS was assessed according to Gonnert et al. (2011) J Surg Res 170: e123-134.

[2] = test system: murine peritoneal macrophages
Text: Female C57Bl/6 mice (6-8 weeks old) were purchased from Envigo (San Petro al Natisone, Udine, Italy) and housed under standard laboratory conditions (specific-pathogen free). Food and water were applied ad libitum. Animal handling and the study protocol were in accordance with international guidelines.
Four days after i.p. injection of 3% thioglycolate medium (w/v in distilled water; St Louis, Mo. USA), murine peritoneal macrophages (PM) were isolated according to the protocol of Zhang et al. (Curr. Protoc. Immunol. 2008, Chapter 14, Unit 14.1).
Briefly, cells were collected by injecting 10 ml of complete medium (DMEM/F12 Medium containing 10% fetal calf serum) into the peritoneal cavity using a 30 cc syringe attached to a 19-G needle, followed by slowly withdrawing the lavage fluid. Cells were washed twice in PBS (phosphate buffered saline) and counted.
One hour prior to LPS (lipopolysaccharide) stimulation (0.1 μg/ml; Escherichia coli […], St Louis, Mo. USA), cells (0.5×10^6 cells/well in 24-well plates with 1 ml total volume of medium) were pre-treated with scalar concentrations of 5-amino-2,3-dihydro-1,4-phthalazinedione sodium salt (ranging from 1 mM to 0.025 mM). Two independent experiments (each using cells pooled from three mice) were performed and secreted cytokine levels were determined 24, 48 and 72 h after LPS stimulation using ELISA technique.

Vero B4 cells = details: antivirally effective concentrations; observation period of 3 days; tested 0.25-4 mM
Text: Herein viable cells with an intact mitochondrial succinate-tetrazolium dehydrogenase system effect an enzymatic conversion of the feebly red tetrazolium salt WST-1 (4-[3-(4-iodophenyl)-2-(4-nitrophenyl)-2H-5-tetrazolio]-1,3 benzene disulfonate) into dark red formazan. This color change can be measured photometrically in a spectrophotometer. Thus, the WST assay is a very sensitive method for measuring the toxicity of substances on the cell metabolism. The value for untreated cells was set to 100%.
The value for untreated cells was set to 100%. 1 μM staurosporine (an indolocarbazole compound from Streptomyces staurosporeus, an apoptosis inducer) was used as positive control.

[3] = 1 mM, pre-treatment 1 h prior to LPS (0.1 μg/ml), C57Bl/6 PMs

## Nc1cccc2c(=O)[nH][nH]c(=O)c12.[Na] [5-amino-2,3-dihydro-1,4-phthalazinedione sodium salt]
[1]; 0.5 mM in perfusion buffer
  cigarette smoke induced 3-nitrotyrosine formation (in words): moderate effect
[1]; 1 mM in perfusion buffer
  cigarette smoke induced 3-nitrotyrosine formation (in words): almost completely abolished
[1]; 2 mM in perfusion buffer
  cigarette smoke induced 3-nitrotyrosine formation (in words): almost completely abolished
[1]; cigarette smoke + 0.5 mM in perfusion buffer (group C)
  3-nitrotyrosine stained surface area, mean ± SEM: 2.24 ± 0.28 % area
[1]; cigarette smoke + 1 mM in perfusion buffer (group D)
  3-nitrotyrosine stained surface area, mean ± SEM: 0.72 ± 0.26 % area
[1]; cigarette smoke + 2 mM in perfusion buffer (group E)
  3-nitrotyrosine stained surface area, mean ± SEM: 0.37 ± 0.13 % area
PCI model of sepsis; prophylactic mode, 5 mg/kg body weight, 3 hours before and 6 hours after PCI induction, Group IV, n=8
  survival rate: 100%
PCI model of sepsis; prophylactic mode, 5 mg/kg body weight, in particular after Day 4
  recovery (Clinical Severity Score) versus untreated group: recovered clearly more quickly
PCI model of sepsis; prophylactic mode, 5 mg/kg body weight, surviving animals
  Clinical Severity Score (CSS) versus untreated group: less strongly diseased
PCI model of sepsis; 2 mg/kg body weight i.p., Group III
  survival rate after 10 days: 50%
PCI model of sepsis; 5 mg/kg body weight i.p., Group IV
  survival rate after 10 days: 83%
SARS-CoV-2
  SARS-CoV-2 nucleocapsid protein (Western Blot): clear reduction
  generation of SARS-CoV-2 proteins (densitometric evaluation): inhibited dose-dependently
[2]; [3]
  reduction of IL-1-beta level: ~50%
  reduction of IL-6 level: ~80%
  reduction of IL-12 level: ~60%
  reduction of TNF-alpha level: about 40%
[2]; Balb/c, six concentrations from 1 mM to 0.25 mM, data not shown
  cytokine reduction in PMs of a second mouse strain: clear dose-dependency
[2]; no LPS, data not shown
  cytokine secretion of unstimulated murine PMs: did not affect
Vero B4 cells
  toxic effect (cell viability, WST assay): does not display any significant toxic effect

Source: US20230113516A1, “5-AMINO-2,3-DIHYDRO-1,4-PHTHAL[…] TREATMENT OF ACUTE LUNG INJURY” (Metriopharm AG, priority 2020, published 2023)
